Data published in patent publication US20200317660A1, “Quinazolinone Compound and Application Thereof” (LUOXIN PHARMACEUTICAL (SHANGHAI) CO., LTD., priority 2017, published 2020).

Experiments:
Type in all cases: biochemical
PI3Kα = target: T1, PI3Kα (Homo sapiens, UniProt P42336); assay: In vitro test of enzyme activity (ADP-Glo lipokinase), PI3K alpha; conditions: 40 μM ATP, 50 μM PIP2:3PS, 120 min
T1 construct: purchased Millipore 14-602-K
Experimental: (§1) 1. In Vitro Test of Enzyme Activity
(§2) The lipokinase reaction was carried out under the conditions of a suitable substrate and ATP, followed by two steps to detect the kinase activity with the ADP-Glo™ kit. The first step was terminating the kinase reaction, wherein the remaining ATP was completely removed and only ADP was left; the second step was adding kinase detection reagents to convert ADP to ATP, accompanied by luciferin/luciferase reaction. Finally, the output value of fluorescence value was converted into kinase activity.
(§3) Experimental materials and equipments:
(§4) 2. Kit: ADP-Glo™ Lipokinase and PIP2:3PS Kit (Promega # V1792)
(§5) The kit contains: 1 mM PIP2:3PS, 10× lipid dilution buffer, 1 M magnesium chloride, 10 mM ATP, 10 mM ADP, ADP-Glo reagent, detection buffer and detection substrate.
(§6) 3. Reaction plate: OptiPlate-384, white and transparent (PerkinElmer #6007299).
(§7) 1. 10× reaction buffer: 500 mM HEPES, pH 7.5, 500 mM NaCl, 9 mM MgCl2; BSA: 10% stock solution, homemade.
(§8) 2. Final test system conditions: 1× reaction system: 50 mM HEPES, 50 mM NaCl, 3 mM MgCl2, 0.01% BSA (freshly prepared on the day of the experiment), 1% DMSO (v/v)+/−compound
(§9) 3. Reaction system: 3 μL mixture of the enzyme and the substrate (1:1)+2 μL ATP/MgCl2 mixture+5 μL ADP-Glo reagent+10 μL detection reagent.
(§10) The detailed experimental procedures are as follows:
(§11) 1. Compound dilution: 50 nL 100×compound/DMSO was transferred to the test well plate with Echo. • For PI3Kα, the compound was diluted three-fold from the highest concentration of 0.111 mM for a total of 10 concentrations. • For PI3Kβ/PI3Kδ/PI3Kγ, the compound was three-fold diluted from the highest concentration of 1.11 mM for a total of 10 concentrations.
(§12) (1) The compound to be tested was prepared and 50 nL of 100 plus compound solution or DMSO was added to the corresponding well plate.
(§13) (2) 3.33 plate reaction buffer was prepared.
(§14) (3) 3.33 solution PIP2:3PS was prepared, PIP2:3PS was thawed for at least 1 minute before use.
(§15) (4) 2.5 mM containing 5.25 mM MgCl2 was prepared.
(§16) (5) 3.33 PI3Kα/PI3Kβ/PI3Kδ/PI3Kγ solution was prepared.
(§17) (6) The lipokinase solution and the PIP2:3PS solution were mixed in a volume ratio of 1:1.
(§18) (7) 3.33: lipokinase buffer and PIP2:3PS solution were mixed in a volume ratio of 1:1.
(§19) (8) 3 μL of buffer solution and PIP2:3PS were added to the first and the second columns of the well plate.
(§20) (9) 3 μL of the mixed solution of the enzyme and PIP2:3PS was added to the wells except the first and the second columns, centrifuged for 10 seconds (1000 rpm) and incubated at 23° C. for 20 minutes.
(§21) (10) 2 μL […] was added and well was shaken.
(§22) (11) The well plate was covered and shaken for about 30 s, then the well plate was incubated at 23° C. for 2 hours.
(§23) (12) 5 μL of ADP-Glo reagent containing 10 mM MgCl2 was added.
(§24) (13) The well plate was centrifuged at 1000 rpm for 10 seconds, and the well plate was then covered, shaken for about 30 seconds, and incubated at 23° C. for 60 minutes.
(§25) (14) 10 μL kinase detection reagent was added.
(§26) (15) The well plate was centrifuged at 1000 rpm for 10 seconds, and then incubated at 23° C. for 60 minutes.
(§27) (16) The fluorescence value was measured on the Envision instrument.

PI3Kβ = target: T2, PI3Kβ (Homo sapiens, UniProt P42338); assay: In vitro test of enzyme activity (ADP-Glo lipokinase), PI3K beta; conditions: 40 μM ATP, 50 μM PIP2:3PS, 120 min
T2 construct: purchased Promega V1751
T2 sequence (P42338 whole entry): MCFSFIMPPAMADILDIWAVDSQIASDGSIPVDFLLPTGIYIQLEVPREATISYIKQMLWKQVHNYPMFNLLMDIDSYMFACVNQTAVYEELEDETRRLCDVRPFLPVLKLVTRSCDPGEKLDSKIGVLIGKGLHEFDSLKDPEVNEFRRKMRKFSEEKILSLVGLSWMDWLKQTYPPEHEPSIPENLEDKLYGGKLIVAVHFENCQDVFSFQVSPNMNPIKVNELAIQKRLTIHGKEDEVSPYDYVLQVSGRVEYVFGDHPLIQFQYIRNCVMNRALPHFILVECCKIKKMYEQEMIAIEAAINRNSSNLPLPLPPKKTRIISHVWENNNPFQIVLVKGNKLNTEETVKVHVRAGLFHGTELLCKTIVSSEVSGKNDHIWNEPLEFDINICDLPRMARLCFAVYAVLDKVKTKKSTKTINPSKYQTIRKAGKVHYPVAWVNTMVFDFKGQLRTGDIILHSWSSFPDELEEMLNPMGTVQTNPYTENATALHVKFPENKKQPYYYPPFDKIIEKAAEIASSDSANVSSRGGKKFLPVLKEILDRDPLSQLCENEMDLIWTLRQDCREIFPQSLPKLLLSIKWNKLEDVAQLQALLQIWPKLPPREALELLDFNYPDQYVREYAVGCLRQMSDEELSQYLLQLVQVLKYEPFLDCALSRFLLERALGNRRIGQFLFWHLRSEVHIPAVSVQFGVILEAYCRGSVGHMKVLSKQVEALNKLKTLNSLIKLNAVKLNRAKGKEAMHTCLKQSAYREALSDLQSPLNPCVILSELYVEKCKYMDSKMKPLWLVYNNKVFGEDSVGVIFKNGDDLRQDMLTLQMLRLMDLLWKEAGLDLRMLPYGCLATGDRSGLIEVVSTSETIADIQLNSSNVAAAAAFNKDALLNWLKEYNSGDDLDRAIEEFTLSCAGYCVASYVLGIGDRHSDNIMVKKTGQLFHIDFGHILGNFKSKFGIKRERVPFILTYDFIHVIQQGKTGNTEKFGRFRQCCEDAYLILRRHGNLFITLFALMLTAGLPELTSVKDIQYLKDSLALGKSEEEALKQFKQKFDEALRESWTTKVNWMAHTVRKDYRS
T2 sequence (P27986 whole entry partner): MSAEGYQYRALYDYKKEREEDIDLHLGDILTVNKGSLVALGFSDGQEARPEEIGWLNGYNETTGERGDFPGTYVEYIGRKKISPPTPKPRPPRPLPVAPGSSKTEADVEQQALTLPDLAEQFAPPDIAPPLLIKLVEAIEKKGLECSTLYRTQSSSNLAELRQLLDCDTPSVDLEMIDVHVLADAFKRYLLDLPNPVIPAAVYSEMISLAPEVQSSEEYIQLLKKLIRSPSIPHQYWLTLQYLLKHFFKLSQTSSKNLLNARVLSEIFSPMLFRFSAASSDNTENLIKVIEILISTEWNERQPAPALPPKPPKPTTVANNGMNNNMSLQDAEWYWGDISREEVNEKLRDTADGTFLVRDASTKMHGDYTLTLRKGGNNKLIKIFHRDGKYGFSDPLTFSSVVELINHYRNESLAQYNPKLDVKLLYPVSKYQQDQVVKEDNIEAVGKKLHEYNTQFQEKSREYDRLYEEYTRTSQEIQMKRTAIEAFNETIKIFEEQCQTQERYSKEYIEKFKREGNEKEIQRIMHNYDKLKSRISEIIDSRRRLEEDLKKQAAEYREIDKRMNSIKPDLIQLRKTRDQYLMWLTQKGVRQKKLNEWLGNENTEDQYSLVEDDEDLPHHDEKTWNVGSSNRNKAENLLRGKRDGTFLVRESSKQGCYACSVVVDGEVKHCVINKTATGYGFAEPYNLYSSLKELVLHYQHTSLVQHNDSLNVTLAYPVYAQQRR
Experimental: as §1, §2, §3, §4, §5, §6, §7, §8, §9, §10, §11, §12, §13, §14, §15, §16, §17, §18, §19, §20, §21, §22, §23, §24, §25, §26, §27

PI3Kγ = target: T3, PI3Kγ (Homo sapiens, UniProt P48736); assay: In vitro test of enzyme activity (ADP-Glo lipokinase), PI3K gamma; conditions: 25 μM ATP, 50 μM PIP2:3PS, 120 min
T3 construct: purchased Millipore 14-558-K
T3 sequence (P48736 whole entry): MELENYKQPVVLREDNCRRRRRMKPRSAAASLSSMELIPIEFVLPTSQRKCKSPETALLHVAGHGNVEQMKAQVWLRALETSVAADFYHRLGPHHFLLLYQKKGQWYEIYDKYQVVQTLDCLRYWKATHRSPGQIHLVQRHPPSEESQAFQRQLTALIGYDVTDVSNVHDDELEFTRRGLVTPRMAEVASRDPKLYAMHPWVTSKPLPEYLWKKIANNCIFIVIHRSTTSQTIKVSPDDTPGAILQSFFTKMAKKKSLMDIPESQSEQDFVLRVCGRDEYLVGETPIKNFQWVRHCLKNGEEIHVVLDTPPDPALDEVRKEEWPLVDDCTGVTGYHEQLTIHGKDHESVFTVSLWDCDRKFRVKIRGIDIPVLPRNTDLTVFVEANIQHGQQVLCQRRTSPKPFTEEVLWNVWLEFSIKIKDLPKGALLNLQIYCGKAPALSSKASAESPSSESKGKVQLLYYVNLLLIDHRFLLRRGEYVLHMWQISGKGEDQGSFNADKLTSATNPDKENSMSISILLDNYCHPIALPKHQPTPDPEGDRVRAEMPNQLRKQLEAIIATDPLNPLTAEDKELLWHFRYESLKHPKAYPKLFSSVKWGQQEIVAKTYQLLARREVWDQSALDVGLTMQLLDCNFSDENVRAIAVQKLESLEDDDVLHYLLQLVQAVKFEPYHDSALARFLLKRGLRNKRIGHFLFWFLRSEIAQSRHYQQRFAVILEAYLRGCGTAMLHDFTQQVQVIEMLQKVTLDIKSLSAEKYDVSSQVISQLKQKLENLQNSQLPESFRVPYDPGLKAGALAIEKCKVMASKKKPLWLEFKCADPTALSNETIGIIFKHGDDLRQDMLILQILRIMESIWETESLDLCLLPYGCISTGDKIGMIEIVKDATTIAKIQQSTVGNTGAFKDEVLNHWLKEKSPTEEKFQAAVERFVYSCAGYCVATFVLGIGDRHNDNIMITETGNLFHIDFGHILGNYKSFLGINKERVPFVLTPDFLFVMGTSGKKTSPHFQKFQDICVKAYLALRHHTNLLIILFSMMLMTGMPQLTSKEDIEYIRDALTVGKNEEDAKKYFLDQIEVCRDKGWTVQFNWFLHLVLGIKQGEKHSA
Experimental: as §1, §2, §3, §4, §5, §6, §7, §8, §9, §10, §11, §12, §13, §14, §15, §16, §17, §18, §19, §20, §21, §22, §23, §24, §25, §26, §27

PI3Kδ = target: T4, PI3Kδ (Homo sapiens, UniProt O00329); assay: In vitro test of enzyme activity (ADP-Glo lipokinase), PI3K delta; conditions: 40 μM ATP, 50 μM PIP2:3PS, 120 min
T4 construct: purchased Millipore 14-604-K
T4 sequence (O00329 whole entry): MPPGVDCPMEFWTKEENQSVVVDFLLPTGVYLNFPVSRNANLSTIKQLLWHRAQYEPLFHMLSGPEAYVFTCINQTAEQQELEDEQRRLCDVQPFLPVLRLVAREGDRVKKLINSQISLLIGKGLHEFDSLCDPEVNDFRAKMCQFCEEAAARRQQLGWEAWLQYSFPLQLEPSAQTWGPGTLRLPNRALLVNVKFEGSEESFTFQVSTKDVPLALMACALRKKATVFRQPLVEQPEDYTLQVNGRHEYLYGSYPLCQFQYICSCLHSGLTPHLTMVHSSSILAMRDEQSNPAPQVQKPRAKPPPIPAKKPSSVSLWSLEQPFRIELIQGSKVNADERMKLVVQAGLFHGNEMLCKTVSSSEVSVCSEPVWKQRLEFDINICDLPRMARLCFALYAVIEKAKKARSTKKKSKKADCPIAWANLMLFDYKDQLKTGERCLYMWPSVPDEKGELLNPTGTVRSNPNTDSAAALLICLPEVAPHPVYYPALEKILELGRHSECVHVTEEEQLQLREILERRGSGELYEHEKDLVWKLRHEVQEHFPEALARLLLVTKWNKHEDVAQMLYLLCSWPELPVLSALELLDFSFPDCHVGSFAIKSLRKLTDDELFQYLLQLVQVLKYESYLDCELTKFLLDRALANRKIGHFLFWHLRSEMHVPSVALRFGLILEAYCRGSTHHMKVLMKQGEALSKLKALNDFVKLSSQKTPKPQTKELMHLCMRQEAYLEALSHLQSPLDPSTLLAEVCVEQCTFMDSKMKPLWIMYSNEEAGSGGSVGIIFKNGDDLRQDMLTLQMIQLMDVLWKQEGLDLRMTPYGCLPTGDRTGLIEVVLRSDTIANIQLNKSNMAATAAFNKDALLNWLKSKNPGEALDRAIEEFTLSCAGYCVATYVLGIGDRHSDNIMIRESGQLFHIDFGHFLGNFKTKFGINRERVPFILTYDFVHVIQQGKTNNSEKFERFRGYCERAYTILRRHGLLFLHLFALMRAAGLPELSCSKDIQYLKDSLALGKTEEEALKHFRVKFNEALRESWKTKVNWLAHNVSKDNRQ
T4 sequence (P27986 whole entry partner): as the sequence (P27986 whole entry partner) above
Experimental: as §1, §2, §3, §4, §5, §6, §7, §8, §9, §10, §11, §12, §13, §14, §15, §16, §17, §18, §19, §20, §21, §22, §23, §24, §25, §26, §27

T1 sequence (P42336 whole entry): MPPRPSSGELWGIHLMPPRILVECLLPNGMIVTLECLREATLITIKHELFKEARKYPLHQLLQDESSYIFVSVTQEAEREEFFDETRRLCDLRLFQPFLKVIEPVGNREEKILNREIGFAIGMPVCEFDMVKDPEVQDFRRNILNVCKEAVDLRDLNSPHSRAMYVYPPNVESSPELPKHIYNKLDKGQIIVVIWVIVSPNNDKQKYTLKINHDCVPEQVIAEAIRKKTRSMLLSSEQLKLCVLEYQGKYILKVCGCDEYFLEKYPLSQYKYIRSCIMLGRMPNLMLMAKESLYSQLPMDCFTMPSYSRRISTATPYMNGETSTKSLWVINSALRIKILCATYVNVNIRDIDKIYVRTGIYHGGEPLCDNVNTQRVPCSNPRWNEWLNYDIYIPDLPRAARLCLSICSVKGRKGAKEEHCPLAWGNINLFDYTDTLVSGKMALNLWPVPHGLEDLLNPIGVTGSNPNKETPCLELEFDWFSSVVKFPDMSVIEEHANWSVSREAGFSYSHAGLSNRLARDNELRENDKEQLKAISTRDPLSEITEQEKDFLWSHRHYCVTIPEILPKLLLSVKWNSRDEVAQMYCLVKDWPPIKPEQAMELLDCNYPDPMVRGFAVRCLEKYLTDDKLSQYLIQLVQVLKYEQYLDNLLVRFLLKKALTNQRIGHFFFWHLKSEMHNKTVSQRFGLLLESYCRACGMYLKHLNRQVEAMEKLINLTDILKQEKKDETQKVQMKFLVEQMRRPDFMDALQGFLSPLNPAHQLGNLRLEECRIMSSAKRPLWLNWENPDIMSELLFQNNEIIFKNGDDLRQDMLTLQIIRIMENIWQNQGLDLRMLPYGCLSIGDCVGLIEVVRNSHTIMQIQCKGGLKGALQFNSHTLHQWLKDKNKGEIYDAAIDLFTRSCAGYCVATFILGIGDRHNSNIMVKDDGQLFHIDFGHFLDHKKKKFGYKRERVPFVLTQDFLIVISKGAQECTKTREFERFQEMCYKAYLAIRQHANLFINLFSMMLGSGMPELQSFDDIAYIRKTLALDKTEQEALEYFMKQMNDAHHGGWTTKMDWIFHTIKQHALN
T1 sequence (P27986 whole entry partner): as the sequence (P27986 whole entry partner) above

Row | SMILES | IC50 (PI3Kα) [µM] | IC50 (PI3Kβ) [µM] | IC50 (PI3Kγ) [µM] | IC50 (PI3Kδ) [µM]
1 | COC(=O)C(C)Cn1cnc2ccc(-c3cnc(OC)c(NS(=O)(=O)c4ccc(F)cc4Cl)c3)cc2c1=O (single isomer, unassigned) [R005, reference compound] | 0.00584 | 0.1 | – | –
2 | CNC(=O)C(C)Cn1cnc2ccc(-c3cnc(C)c(NS(=O)(=O)c4sc(C)nc4C)c3)cc2c1=O (single isomer, unassigned) [WX034] | 0.00071 | 0.554 | 0.0299 | 0.0116
3 | CNC(=O)C(C)Cn1cnc2ccc(-c3cnc(OC)c(NS(=O)(=O)c4ccc(F)cc4)c3)cc2c1=O (single isomer, unassigned) [WX088] | 0.008 | 0.211 | – | –
4 | CNC(=O)C(C)Cn1cnc2ccc(-c3cnc(OC)c(NS(=O)(=O)c4ccc(C)cc4C)c3)cc2c1=O (single isomer, unassigned) [WX092] | 0.00647 | 0.25 | – | –
5 | CNC(=O)C(C)Cn1cnc2ccc(-c3cnc(OC)c(NS(=O)(=O)c4cc(Cl)c(F)cc4F)c3)cc2c1=O (single isomer, unassigned) [WX096] | 0.00851 | 0.175 | – | –
6 | CNC(=O)C(C)Cn1cnc2ccc(-c3cnc(OC)c(NS(=O)(=O)c4cc(C(F)(F)F)cc(C(F)(F)F)c4)c3)cc2c1=O (single isomer, unassigned) [WX104] | 0.0385 | 1.95 | – | –
7 | CNC(=O)C(C)Cn1cnc2ccc(-c3cnc(OC)c(NS(=O)(=O)c4ccc(F)c(C#N)c4)c3)cc2c1=O (single isomer, unassigned) [WX156] | 0.00356 | 0.498 | – | –
8 | CNC(=O)C(C)Cn1cnc2ccc(-c3cnc(OC)c(NS(=O)(=O)c4ccc(F)c(C#N)c4)c3)cc2c1=O (single isomer, unassigned) [WX157] | 0.00581 | 0.287 | – | –
9 | CNC(=O)C(C)Cn1cnc2ccc(-c3cnc(OC)c(NS(=O)(=O)c4cc(C)cc(F)c4)c3)cc2c1=O (single isomer, unassigned) [WX187] | 0.00484 | 0.331 | – | –
10 | CNC(=O)C(C)Cn1cnc2ccc(-c3cnc(OC)c(NS(=O)(=O)c4cc(F)cc(F)c4)c3)cc2c1=O (single isomer, unassigned) [WX193] | 0.0126 | 0.451 | – | –
11 | CNC(=O)C(C)Cn1cnc2ccc(-c3cnc(OC)c(NS(=O)(=O)c4ccc(F)cc4C(F)(F)F)c3)cc2c1=O (single isomer, unassigned) [WX195] | 0.00558 | 0.327 | – | –
12 | CNC(=O)C(C)Cn1cnc2ccc(-c3cnc(OC)c(NS(=O)(=O)c4ccc(OC)cc4)c3)cc2c1=O (single isomer, unassigned) [WX204] | 0.0225 | 0.527 | – | –
13 | CNC(=O)C(C)Cn1cnc2ccc(-c3cnc(OC)c(NS(=O)(=O)c4c(Cl)cccc4Cl)c3)cc2c1=O (single isomer, unassigned) [WX208] | 0.00249 | 0.119 | – | –
14 | CNC(=O)C(C)Cn1cnc2ccc(-c3cnc(OC)c(NS(=O)(=O)c4sccc4C)c3)cc2c1=O (single isomer, unassigned) [WX209] | 0.00408 | 0.176 | – | –
15 | CNC(=O)C(C)Cn1cnc2ccc(-c3cnc(OC)c(NS(=O)(=O)c4cccc(C)c4F)c3)cc2c1=O (single isomer, unassigned) [WX219] | 0.00536 | 0.276 | – | –
16 | CNC(=O)C(C)Cn1cnc2ccc(-c3cnc(OC)c(NS(=O)(=O)c4cccc(C)c4F)c3)cc2c1=O (single isomer, unassigned) [WX220] | 0.0101 | 0.139 | – | –
17 | CCOC(=O)CCCn1cnc2ccc(-c3cnc(OC)c(NS(=O)(=O)c4ccc(F)cc4Cl)c3)cc2c1=O [R001, reference compound] | 0.00377 | 0.1 | – | –
18 | CNC[C@@H](C)Cn1cnc2ccc(-c3cnc(OC)c(NS(=O)(=O)c4ccc(F)cc4Cl)c3)cc2c1=O [R008, reference compound] | 0.012 | 0.121 | – | –
19 | CNC[C@H](C)Cn1cnc2ccc(-c3cnc(OC)c(NS(=O)(=O)c4ccc(F)cc4Cl)c3)cc2c1=O [R009, reference compound] | 0.0104 | 0.108 | – | –
20 | COc1ncc(-c2ccc3ncn(CC(C)(C)C(N)=O)c(=O)c3c2)cc1NS(=O)(=O)c1ccc(F)cc1Cl [WX020] | 0.0102 | 0.413 | – | –
21 | CNC(=O)C(C)Cn1cnc2ccc(-c3cnc(C(F)(F)F)c(NS(=O)(=O)c4ccc(F)cc4Cl)c3)cc2c1=O (stereo not drawn) [WX084] | 0.00056 | 0.11 | – | –
22 | COc1ncc(-c2ccc3ncn(CCCC(=O)N4CCCC4)c(=O)c3c2)cc1NS(=O)(=O)c1ccc(F)cc1Cl [WX199] | 0.00486 | 0.199 | – | –
23 | CNC(=O)[C@H](C)Cn1cnc2ccc(-c3cnc(OC)c(NS(=O)(=O)c4ccc(OC)cc4)c3)cc2c1=O [WX203] | 0.0128 | 0.595 | – | –
24 | CNC(=O)[C@@H](C)Cn1cnc2ccc(-c3cnc(OC)c(NS(=O)(=O)c4ccccc4F)c3)cc2c1=O [WX205] | 0.0037 | 0.0973 | – | –
25 | CNC(=O)[C@@H](C)Cn1cnc2ccc(-c3cnc(OC)c(NS(=O)(=O)c4c(Cl)cccc4Cl)c3)cc2c1=O [WX207] | 0.00085 | 0.0205 | – | –

The remaining lines, values ahead:

Row | IC50 (PI3Kα) [µM] | IC50 (PI3Kβ) [µM] | IC50 (PI3Kγ) [µM] | IC50 (PI3Kδ) [µM] | SMILES
26 | 0.0112 | 2.1 | – | – | CNC(=O)C(C)Cn1cnc2ccc(-c3cnc(OC)c(NS(=O)(=O)c4ccc(C)c(Cl)c4)c3)cc2c1=O (single isomer, unassigned) [WX160]
27 | 0.00892 | 0.153 | – | – | CNC(=O)C(C)Cn1cnc2ccc(-c3cnc(OC)c(NS(=O)(=O)c4ccc(C)c(Cl)c4)c3)cc2c1=O (single isomer, unassigned) [WX161]
28 | 0.00578 | 0.222 | – | – | CNC(=O)C(C)Cn1cnc2ccc(-c3cnc(OC)c(NS(=O)(=O)c4ccc(F)c(Cl)c4)c3)cc2c1=O (single isomer, unassigned) [WX166]
29 | 0.013 | 0.159 | – | – | CNC(=O)C(C)Cn1cnc2ccc(-c3cnc(OC)c(NS(=O)(=O)c4ccc(F)c(Cl)c4)c3)cc2c1=O (single isomer, unassigned) [WX167]
30 | 0.0102 | 0.411 | – | – | CNC(=O)C(C)Cn1cnc2ccc(-c3cnc(OC)c(NS(=O)(=O)c4ccc(F)cc4C)c3)cc2c1=O (single isomer, unassigned) [WX180]
31 | 0.00452 | 0.201 | – | – | CNC(=O)C(C)Cn1cnc2ccc(-c3cnc(OC)c(NS(=O)(=O)c4cc(C)ccc4Cl)c3)cc2c1=O (single isomer, unassigned) [WX213]
32 | 0.00347 | 0.269 | – | – | CNC(=O)C(C)Cn1cnc2ccc(-c3cnc(OC)c(NS(=O)(=O)c4ccc(Cl)cc4C)c3)cc2c1=O (single isomer, unassigned) [WX217]
33 | 0.00504 | 0.216 | – | – | CNC(=O)C(C)Cn1cnc2ccc(-c3cnc(OC)c(NS(=O)(=O)c4ccc(Cl)cc4C)c3)cc2c1=O (single isomer, unassigned) [WX218]
34 | 0.00461 | 0.162 | – | – | CNC(=O)C(C)Cn1cnc2ccc(-c3cnc(OC)c(NS(=O)(=O)c4cc(Cl)ccc4C)c3)cc2c1=O (single isomer, unassigned) [WX221]
35 | 0.00147 | 0.0733 | – | – | CNC(=O)[C@H](C)Cn1cnc2ccc(-c3cnc(OC)c(NS(=O)(=O)c4cc(Cl)ccc4Cl)c3)cc2c1=O [WX182]
36 | 0.00814 | 0.192 | – | – | CNC(=O)[C@@H](C)Cn1cnc2ccc(-c3cnc(OC)c(NS(=O)(=O)c4cc(C)cc(Cl)c4)c3)cc2c1=O [WX184]
37 | 0.00298 | 0.152 | – | – | CNC(=O)[C@H](C)Cn1cnc2ccc(-c3cnc(OC)c(NS(=O)(=O)c4cccc(C)c4Cl)c3)cc2c1=O [WX188]
38 | 0.0132 | 0.205 | – | – | CNC(=O)[C@H](C)Cn1cnc2ccc(-c3cnc(OC)c(NS(=O)(=O)c4ccc(Cl)c(C)c4)c3)cc2c1=O [WX190]
